System: monocotyledonous and dicotyledonous weeds
Experiment: Greenhouse post-emergence herbicidal test, effect rated visually against untreated controls
Type: in vivo
Procedure: Seeds or rhizome pieces of monocotyledonous and dicotyledonous weeds were placed in sandy loam soil in plastic pots, covered with soil and grown in a greenhouse under good growth conditions. Three weeks after seeding, the test plants were treated in the three-leaf stage. The compositions of the invention, formulated as wettable powders or as emulsion concentrates, were sprayed onto the green parts of the plants at various application rates of 600-800 l of water/ha (converted). The test plants were allowed to stand in the greenhouse under optimum growth conditions for about 3 to 4 weeks, and the effect of the preparations was then rated visually in comparison to untreated controls. The compositions according to the invention have good herbicidal activity against harmful plants of economic importance.

SMILES	herbicidal activity compared with a commercial formulation of bromoxynil-octanoate (300 and 600 g of AS/ha as microcapsule suspension (10%, Formulation Example 2), applied with a surfactant such as Genapol X 150, Genapol X 200, Sapogenat T130, T 200, T 300, T 400, T 500 or Genapol O 200 at 150, 300 and 600 g of surfactant/ha)	herbicidal activity compared with bromoxynil-Na applied with a surfactant having a lower content of ethylene oxide units (Genapol® 060, 6 ethylene oxide units) (bromoxynil-Na 300 g/ha in combination with a surfactant such as Genapol X 150, Genapol X 200, Sapogenat T130, T 200, T 300, T 400, T 500 or Genapol O 200 at 50, 100, 300 and 60 g/ha, post-emergence, three-leaf stage, rated after about 3 to 4 weeks)
CCCCCCCC(=O)Oc1c(Br)cc(C#N)cc1Br [Bromoxynil-octanoate, bromoxynil-octanoate]	considerably higher	
N#Cc1cc(Br)c([O-])c(Br)c1.[Na+] [bromoxynil-Na, bromoxynil-sodium]		considerably higher
